According to the supplement of paper PMC10307832:

Legend:
Assay in all cases: relative viability (nuclei count vs DMSO), 5 days (fraction); higher = more cells survive
BMX-IN-1 + Tozasertib = compound: C=CC(=O)Nc1cc(-n2c(=O)ccc3cnc4ccc(-c5ccc(NS(C)(=O)=O)cc5)cc4c32)ccc1C [BMX-IN-1] + Cc1cc(Nc2cc(N3CCN(C)CC3)nc(Sc3ccc(NC(=O)C4CC4)cc3)n2)n[nH]1 [Tozasertib] (partner 0.1 µM)
Method in brief: (§1)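 Nuclei were stained with Hoechst during a one-step fixation (final 0.05% Triton X-100, 1% formaldehyde, 1 ug/ml Hoechst) carried out 5 days after dosing, then counted on 4× images. The cells, lung cancer lines in 1536-well plates, had been dosed by pin tool the day after seeding with one drug alone or a fixed anchor-drug dose plus five library-drug doses (not always all listed) in √10 steps. Relative viability is the nuclei count in treated wells divided by that in vehicle wells, and each value is the median of duplicate plates.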

PAC-1 + AZD7762 = compound: C=CCc1cccc(/C=N/NC(=O)CN2CCN(Cc3ccccc3)CC2)c1O [PAC-1] + NC(=O)Nc1cc(-c2cccc(F)c2)sc1C(=O)N[C@H]1CCCNC1 [AZD7762] (partner 0.2 µM)
Method in brief: as §1

PAC-1 + Navitoclax = compound: C=CCc1cccc(/C=N/NC(=O)CN2CCN(Cc3ccccc3)CC2)c1O [PAC-1] + CC1(C)CCC(c2ccc(Cl)cc2)=C(CN2CCN(c3ccc(C(=O)NS(=O)(=O)c4ccc(N[C@H](CCN5CCOCC5)CSc5ccccc5)c(S(=O)(=O)C(F)(F)F)c4)cc3)CC2)C1 [Navitoclax] (partner 0.5 µM)
Method in brief: as §1

Ibrutinib + Alpelisib = compound: C=CC(=O)N1CCC[C@@H](n2nc(-c3ccc(Oc4ccccc4)cc3)c3c(N)ncnc32)C1 [Ibrutinib] + Cc1nc(NC(=O)N2CCC[C@H]2C(N)=O)sc1-c1ccnc(C(C)(C)C(F)(F)F)c1 [Alpelisib] (partner 2 µM)
Method in brief: as §1

Cell Line	relative viability (BMX-IN-1 + Tozasertib; first compound 0.02 µM)	relative viability (BMX-IN-1 + Tozasertib; first compound 0.2 µM)	relative viability (BMX-IN-1 + Tozasertib; first compound 0.6325 µM)	relative viability (BMX-IN-1 + Tozasertib; first compound 2 µM)	relative viability (PAC-1 + AZD7762; first compound 0.02 µM)	relative viability (PAC-1 + AZD7762; first compound 0.06325 µM)	relative viability (PAC-1 + AZD7762; first compound 0.2 µM)	relative viability (PAC-1 + AZD7762; first compound 2 µM)	relative viability (PAC-1 + Navitoclax; first compound 0.02 µM)	relative viability (PAC-1 + Navitoclax; first compound 0.06325 µM)	relative viability (PAC-1 + Navitoclax; first compound 0.2 µM)	relative viability (PAC-1 + Navitoclax; first compound 2 µM)	relative viability (Ibrutinib + Alpelisib; first compound 0.005 µM)	relative viability (Ibrutinib + Alpelisib; first compound 0.01581 µM)	relative viability (Ibrutinib + Alpelisib; first compound 0.05 µM)	relative viability (Ibrutinib + Alpelisib; first compound 0.1581 µM)	relative viability (Ibrutinib + Alpelisib; first compound 0.5 µM)
NCI-H2085	0.873	0.754	0.794	0.734	0.994	1	0.907	1.1	1.1	1.08	1.12	1.16	0.965	0.893	0.862	0.977	0.743
HCC-78	0.472	0.474	0.52	0.36	0.676	0.558	0.596	0.573	0.719	0.748	0.699	0.646	0.346	0.315	0.292	0.391	0.24
NCI-H647	0.283	0.0553	0.394	0.232	0.44	0.589	0.502	0.467	1.23	1.09	1.16	1.2	1.15	1.01	1.14	1.45	1.21
NCI-H1299									1.04	1.03	1.06	1.04	1.08	1.01	1.03	1.06	1.06
LU99A	0.275	0.294	0.275	0.293	0.465	0.392	0.264	0.179	0.939	0.836	0.717	0.801	0.419	0.449	0.492	0.499	0.496
A549									1.25	1.18	1.14	1.23	0.624	0.681	0.634	0.854	0.761
HARA	0.0824	0.0995	0.111	0.092	0.229	0.304	0.0838	0.457	1.15	1.11	1.14	1.15	0.903	0.763	0.681	0.974	0.332
NCI-H1944	0.279	0.254	0.236	0.244	0.428	0.542	0.502	0.516	1.03	1.04	0.954	1.04	0.659	0.685	0.784	0.755	0.521
LCLC-103H	0.605	0.494	0.559	0.485	0.833	0.764	0.713	0.757					0.897	0.86	1.02	0.992	0.949
NCI-H1792					0.673	0.672	0.562	0.679	0.613	0.563	0.621	0.681	0.716	0.698	0.764	0.782	0.65
Calu-6									0.817	0.861	0.878	0.855	1.02	0.993		1.06	0.93
SW 900	0.425	0.682	0.606	0.679		0.744	0.637	0.678									
LOU-NH91	0.829		0.715	0.656	0.742	0.761	0.768	0.71	0.651	0.718	0.672	0.673	0.652	0.597	0.592	0.67	0.48
HCC-366	0.0929	0.0929	0.112	0.1	0.265	0.309	0.251	0.312	1.13	1.01	1.1	1.09	0.459	0.496	0.372	0.414	0.466
CAL-12T	0.345	0.375	0.344	0.297	0.579	0.621	0.626	0.6	1.43	1.21	1.31	1.26		0.831	1.14	1.18	0.698
NCI-H1355	0.607	0.664	0.532	0.518	0.634	0.721	0.795	0.785	0.866	0.961	0.965	0.962		0.704	0.782	0.887	0.646
ABC-1	0.199	0.162	0.145	0.172	0.952	0.871	0.628	0.975					0.922	0.813	1.05	1.17	0.983
NCI-H2405	0.808	0.76	0.861	0.747	0.648	0.828	0.86	0.802	0.891	0.969	0.855	1.08	0.706	0.713	0.83		0.706
NCI-H1648	0.447	0.47	0.426	0.459	0.604	0.898	0.73	0.66									
NCI-H650	0.753	0.838	0.739	0.764	0.945	0.943	1.02	0.951						1		1.26	1.13
NCI-H2228	0.243	0.245	0.243	0.224					0.98	1.12	0.893	0.785	0.807	0.677	0.747	0.723	0.671
EPLC-272H	0.218	0.222	0.279	0.245	0.177	0.295	0.134	0.22		1.09	1	1.04		1.02	0.836	0.848	0.759
SK-LU-1	0.321	0.344	0.281	0.254					0.803	0.892	0.733	0.888	0.751	1.06	1.31	1.06	1.06
PC-3 [JPC-3]	1.02	1.02	1.08	0.951	0.848	0.985	0.883	0.877	0.894	0.817	0.708	0.844	1.03	0.946	0.941	1.04	0.517

Cell Line	relative viability (BMX-IN-1 + Tozasertib; first compound 0.02 µM)	relative viability (BMX-IN-1 + Tozasertib; first compound 0.2 µM)	relative viability (BMX-IN-1 + Tozasertib; first compound 0.6325 µM)	relative viability (BMX-IN-1 + Tozasertib; first compound 2 µM)	relative viability (PAC-1 + AZD7762; first compound 0.02 µM)	relative viability (PAC-1 + AZD7762; first compound 0.06325 µM)	relative viability (PAC-1 + AZD7762; first compound 0.2 µM)	relative viability (PAC-1 + AZD7762; first compound 2 µM)	relative viability (PAC-1 + Navitoclax; first compound 0.02 µM)	relative viability (PAC-1 + Navitoclax; first compound 0.06325 µM)	relative viability (PAC-1 + Navitoclax; first compound 0.2 µM)	relative viability (PAC-1 + Navitoclax; first compound 2 µM)	relative viability (Ibrutinib + Alpelisib; first compound 0.005 µM)	relative viability (Ibrutinib + Alpelisib; first compound 0.01581 µM)	relative viability (Ibrutinib + Alpelisib; first compound 0.05 µM)	relative viability (Ibrutinib + Alpelisib; first compound 0.1581 µM)	relative viability (Ibrutinib + Alpelisib; first compound 0.5 µM)
ChaGo-K-1	0.216	0.227	0.218	0.237	0.858	0.907	0.861	0.9	1.2	1.08	1.21	1.08					
NCI-H3122	0.516	0.399	0.461	0.117	0.896	0.906	0.93	0.988	0.975	1.02	1.01	0.993	0.686	0.743	0.873	0.583	0.711
NCI-H1703					0.148	0.128	0.143	0.124	1.4	0.998	0.958	0.959	0.273	0.362	0.362	0.397	0.243
NCI-H2126	1.03	0.947	0.867	0.829	1.04	0.993	0.963	1.05	0.884	0.886	0.87	0.854		0.7	0.769	0.763	0.606
NCI-H1993	0.624	0.652	0.585	0.498	0.829	0.797	0.748	0.837	0.85	0.814	0.837	0.95	0.644	0.715	0.613		0.742
NCI-H1793	0.311	0.285	0.311	0.303	0.501	0.587	0.547	0.568	0.453	0.46	0.535	0.461		0.635	0.605	0.587	0.575
NCI-H441	0.58	0.873	0.761	0.846	0.994	1.15	1.19	1.1	0.435	0.645	0.587	0.56	0.908	0.54	0.868	0.871	0.711
H3255	0.788	0.648	0.577	0.624	0.993	0.802	0.772	0.931	0.544	0.537	0.561	0.595	0.555	0.699	0.474	1.05	0.214
NCI-H661	0.378	0.358	0.352	0.348									0.467	0.68	0.358	0.524	0.216
COR-L 105	0.388	0.318	0.76	0.358					0.852	0.725	1.38	0.841	0.899	0.762	0.866	1.11	0.43
NCI-H2023	0.363	0.43	0.434	0.333					0.981	0.963	0.953	1.02	0.567	0.574	0.492	0.66	0.568
UMC-11	0.194	0.197	0.244	0.196					0.334	0.311	0.308	0.318	0.957	1.01	0.958	1.01	0.964
COR-L23	0.186	0.312	0.213	0.212					0.874	0.984	0.908	0.999	0.947	0.702	0.73	0.775	0.865
NCI-H2342	0.454	0.526	0.494	0.422	0.56	0.383	0.395	0.666									
NCI-H1650	0.374	0.503	0.364	0.41					1.18	1.15	1.22	1.04					
NCI-H522	0.573	0.666	0.605	0.532	0.886	0.69	0.799	0.891									
NCI-H2009	0.826	0.853	0.781	0.712					1.16	1.18	1.22	1.16	1.24	1.12	1.16	1.15	1.16
NCI-H1563													1	0.883	0.882	1.09	0.946
NCI-H1623	0.494	0.465	0.447	0.394													
IA-LM									0.78	0.92	0.632	0.657	0.826	0.732	0.682	0.658	1
EBC-1									0.382	0.336	0.443	0.33	0.852	0.856	0.79	0.936	0.895
NCI-H358	0.112	0.108	0.104	0.11	0.51	0.507	0.55	0.402					0.817	0.603	0.504	0.887	0.36
NCI-H520	0.494	0.451	0.43	0.429					1.11	1.02	1.04	1.12	0.892	0.797	1.04	1.09	0.759
SW 1573	0.115	0.175	0.185	0.177					0.825	1.03	0.825	1.03	0.632	0.807	0.844	0.749	0.811
